Assay: mn = molality of the nth substance listed, in mol/kg
Settings: Liquid; for thermal conductivity: Coaxial cylinder method; for viscosity: Capillary tube (Ostwald / Ubbelohde) method

O=S(=O)([O-])[O-].[K+].[K+] [potassium sulfate] + O
Settings | thermal conductivity [W/m/K] | viscosity [mPa·s]
298 K, 100 kPa, m1 = 0.499 | 0.602 | –
298 K, 10000 kPa, m1 = 0.499 | 0.607 | –
298 K, 30000 kPa, m1 = 0.499 | 0.616 | –
298.15 K, 0.1 kPa, m1 = 0.0658 | – | 0.9039
298.15 K, 0.1 kPa, m1 = 0.2055 | – | 0.931
298.15 K, 0.1 kPa, m1 = 0.305 | – | 0.9616
298.15 K, 0.1 kPa, m1 = 0.407 | – | 0.9825
298.15 K, 10 kPa, m1 = 0.0658 | – | 0.9023
298.15 K, 10 kPa, m1 = 0.2055 | – | 0.9297
298.15 K, 10 kPa, m1 = 0.305 | – | 0.9618
298.15 K, 10 kPa, m1 = 0.407 | – | 0.9823
298.15 K, 20 kPa, m1 = 0.0658 | – | 0.904
298.15 K, 20 kPa, m1 = 0.2055 | – | 0.931
298.15 K, 20 kPa, m1 = 0.305 | – | 0.9615
298.15 K, 20 kPa, m1 = 0.407 | – | 0.9826
298.15 K, 30 kPa, m1 = 0.0658 | – | 0.9053
298.15 K, 30 kPa, m1 = 0.2055 | – | 0.9319
298.15 K, 30 kPa, m1 = 0.305 | – | 0.964
298.15 K, 30 kPa, m1 = 0.407 | – | 0.983
298.4 K, 100 kPa, m1 = 0.239 | 0.605 | –
298.4 K, 10000 kPa, m1 = 0.239 | 0.61 | –
298.4 K, 30000 kPa, m1 = 0.239 | 0.62 | –
311.65 K, 0.1 kPa, m1 = 0.2055 | – | 0.7107
311.65 K, 10 kPa, m1 = 0.2055 | – | 0.7122
311.65 K, 20 kPa, m1 = 0.2055 | – | 0.7133
311.65 K, 30 kPa, m1 = 0.2055 | – | 0.7151
312.25 K, 0.1 kPa, m1 = 0.407 | – | 0.7386
312.25 K, 10 kPa, m1 = 0.407 | – | 0.7414
312.25 K, 20 kPa, m1 = 0.407 | – | 0.7439
312.25 K, 30 kPa, m1 = 0.407 | – | 0.7452
312.55 K, 0.1 kPa, m1 = 0.305 | – | 0.7172
312.55 K, 10 kPa, m1 = 0.305 | – | 0.7194
312.55 K, 20 kPa, m1 = 0.305 | – | 0.7207
312.55 K, 30 kPa, m1 = 0.305 | – | 0.7227
313 K, 100 kPa, m1 = 0.239 | 0.626 | –
313 K, 10000 kPa, m1 = 0.239 | 0.631 | –
313 K, 30000 kPa, m1 = 0.239 | 0.641 | –
313.1 K, 100 kPa, m1 = 0.782 | 0.618 | –
313.1 K, 10000 kPa, m1 = 0.782 | 0.623 | –
313.1 K, 30000 kPa, m1 = 0.782 | 0.632 | –
313.55 K, 0.1 kPa, m1 = 0.0658 | – | 0.6609
313.55 K, 10 kPa, m1 = 0.0658 | – | 0.6613
313.55 K, 20 kPa, m1 = 0.0658 | – | 0.665
313.55 K, 30 kPa, m1 = 0.0658 | – | 0.667
313.6 K, 100 kPa, m1 = 0.499 | 0.622 | –
313.6 K, 10000 kPa, m1 = 0.499 | 0.627 | –
313.6 K, 30000 kPa, m1 = 0.499 | 0.637 | –
323.15 K, 0.1 kPa, m1 = 0.2055 | – | 0.5819
323.15 K, 0.1 kPa, m1 = 0.305 | – | 0.5972
323.15 K, 10 kPa, m1 = 0.2055 | – | 0.5837
323.15 K, 10 kPa, m1 = 0.305 | – | 0.5991
323.15 K, 20 kPa, m1 = 0.2055 | – | 0.5858
323.15 K, 20 kPa, m1 = 0.305 | – | 0.6019
323.15 K, 30 kPa, m1 = 0.2055 | – | 0.5885
323.15 K, 30 kPa, m1 = 0.305 | – | 0.6045
323.25 K, 0.1 kPa, m1 = 0.0658 | – | 0.5568
323.25 K, 10 kPa, m1 = 0.0658 | – | 0.5586
323.25 K, 20 kPa, m1 = 0.0658 | – | 0.5601
323.25 K, 30 kPa, m1 = 0.0658 | – | 0.5617
323.35 K, 0.1 kPa, m1 = 0.407 | – | 0.6109
323.35 K, 10 kPa, m1 = 0.407 | – | 0.613
323.35 K, 20 kPa, m1 = 0.407 | – | 0.6159
323.35 K, 30 kPa, m1 = 0.407 | – | 0.618
333.3 K, 100 kPa, m1 = 0.782 | 0.64 | –
333.3 K, 10000 kPa, m1 = 0.782 | 0.645 | –
333.3 K, 30000 kPa, m1 = 0.782 | 0.655 | –
333.6 K, 100 kPa, m1 = 0.239 | 0.649 | –
333.6 K, 10000 kPa, m1 = 0.239 | 0.654 | –
333.6 K, 30000 kPa, m1 = 0.239 | 0.664 | –
333.7 K, 100 kPa, m1 = 0.499 | 0.645 | –
333.7 K, 10000 kPa, m1 = 0.499 | 0.65 | –
333.7 K, 30000 kPa, m1 = 0.499 | 0.66 | –
348.15 K, 0.1 kPa, m1 = 0.407 | – | 0.4271
348.15 K, 10 kPa, m1 = 0.407 | – | 0.4316
348.15 K, 20 kPa, m1 = 0.407 | – | 0.4354
348.15 K, 30 kPa, m1 = 0.407 | – | 0.438
348.25 K, 0.1 kPa, m1 = 0.305 | – | 0.4147
348.25 K, 10 kPa, m1 = 0.305 | – | 0.4182
348.25 K, 20 kPa, m1 = 0.305 | – | 0.4217
348.25 K, 30 kPa, m1 = 0.305 | – | 0.4248
348.45 K, 0.1 kPa, m1 = 0.0658 | – | 0.3842
348.45 K, 10 kPa, m1 = 0.0658 | – | 0.3869
348.45 K, 20 kPa, m1 = 0.0658 | – | 0.3912
348.45 K, 30 kPa, m1 = 0.0658 | – | 0.3963
348.95 K, 0.1 kPa, m1 = 0.2055 | – | 0.3988
348.95 K, 10 kPa, m1 = 0.2055 | – | 0.402
348.95 K, 20 kPa, m1 = 0.2055 | – | 0.4048
348.95 K, 30 kPa, m1 = 0.2055 | – | 0.4076
352.9 K, 100 kPa, m1 = 0.499 | 0.66 | –
352.9 K, 100 kPa, m1 = 0.782 | 0.654 | –
352.9 K, 10000 kPa, m1 = 0.499 | 0.665 | –
352.9 K, 10000 kPa, m1 = 0.782 | 0.659 | –
352.9 K, 30000 kPa, m1 = 0.499 | 0.675 | –
352.9 K, 30000 kPa, m1 = 0.782 | 0.67 | –
353.3 K, 100 kPa, m1 = 0.239 | 0.665 | –
353.3 K, 10000 kPa, m1 = 0.239 | 0.67 | –
353.3 K, 30000 kPa, m1 = 0.239 | 0.679 | –
363 K, 100 kPa, m1 = 0.499 | 0.666 | –
363 K, 10000 kPa, m1 = 0.499 | 0.671 | –
363 K, 30000 kPa, m1 = 0.499 | 0.68 | –
363.4 K, 100 kPa, m1 = 0.239 | 0.67 | –
363.4 K, 100 kPa, m1 = 0.782 | 0.66 | –
363.4 K, 10000 kPa, m1 = 0.239 | 0.675 | –
363.4 K, 10000 kPa, m1 = 0.782 | 0.665 | –
363.4 K, 30000 kPa, m1 = 0.239 | 0.685 | –
363.4 K, 30000 kPa, m1 = 0.782 | 0.675 | –
365.45 K, 10 kPa, m1 = 0.2055 | – | 0.3303
365.45 K, 20 kPa, m1 = 0.2055 | – | 0.3339
365.45 K, 30 kPa, m1 = 0.2055 | – | 0.3363
365.95 K, 10 kPa, m1 = 0.305 | – | 0.3396
365.95 K, 20 kPa, m1 = 0.305 | – | 0.3421
365.95 K, 30 kPa, m1 = 0.305 | – | 0.346
372.55 K, 10 kPa, m1 = 0.407 | – | 0.3265
372.55 K, 20 kPa, m1 = 0.407 | – | 0.33
372.55 K, 30 kPa, m1 = 0.407 | – | 0.3329
376.65 K, 10 kPa, m1 = 0.0658 | – | 0.2805
376.65 K, 20 kPa, m1 = 0.0658 | – | 0.2846
376.65 K, 30 kPa, m1 = 0.0658 | – | 0.2884
393.1 K, 10000 kPa, m1 = 0.499 | 0.679 | –
393.1 K, 10000 kPa, m1 = 0.782 | 0.672 | –
393.1 K, 30000 kPa, m1 = 0.499 | 0.69 | –
393.1 K, 30000 kPa, m1 = 0.782 | 0.685 | –
393.5 K, 10000 kPa, m1 = 0.239 | 0.684 | –
393.5 K, 30000 kPa, m1 = 0.239 | 0.695 | –
396.35 K, 10 kPa, m1 = 0.407 | – | 0.2605
396.35 K, 20 kPa, m1 = 0.407 | – | 0.2628
396.35 K, 30 kPa, m1 = 0.407 | – | 0.2667
396.65 K, 10 kPa, m1 = 0.2055 | – | 0.2435
396.65 K, 20 kPa, m1 = 0.2055 | – | 0.2464
396.65 K, 30 kPa, m1 = 0.2055 | – | 0.2492
397.25 K, 10 kPa, m1 = 0.305 | – | 0.2503
